Legend:
Assay type in all cases: functional
[1] = Cytotoxicity against human MIAPaCa2 cells assessed as cell growth at 10 uM after 72 hrs by Cell Titer 96 cell proliferation assay relative to control; details: MIA PaCa-2, 72 h, read-out: Activity
[2] = Cytotoxicity against human PANC1 cells assessed as cell growth at 10 uM after 72 hrs by Cell Titer 96 cell proliferation assay relative to control; details: PANC-1, 72 h, read-out: Activity
[3] = Cytotoxicity against human BxPC3 cells assessed as cell growth at 10 uM after 72 hrs by Cell Titer 96 cell proliferation assay relative to control; details: BXPC-3, 72 h, read-out: Activity

Compound | growth at 10 µM [1] [%] | growth at 10 µM [2] [%] | growth at 10 µM [3] [%]
C=C(C(=O)OC)C(O)c1ccc([N+](=O)[O-])cc1 (stereo not given) | 98 | 138 | 123
C=C1C(=O)O[C@H](c2ccccc2)[C@@H]1c1ccccc1 (relative stereo) | 9 | 12 | 3
C=C(C(=O)OC)[C@@H](c1ccccc1)[C@@H](C)O (relative stereo) | 24 | 96 | 27
C=C1C(=O)OC1c1ccc(C#N)cc1 (stereo not given) | 99 | 102 | 116
C=C(C(=O)O)C(O)c1ccc(C(F)(F)F)cc1 (stereo not given) | 119 | 129 | 121
C=C(C(=O)OCC)C(O)c1ccc(OC)cc1 (stereo not given) | 110 | 108 | 130
C=C(C(=O)O)C(O)c1ccc(C#N)cc1 (stereo not given) | 92 | 108 | 114
C=C(C(=O)O)C(O)c1ccc([N+](=O)[O-])cc1 (stereo not given) | 130 | 134 | 124
C=C1C(=O)OC1c1ccc([N+](=O)[O-])cc1 (stereo not given) | 123 | 136 | 133
C=C(C(=O)OC)C(C)CO (stereo not given) | 124 | 120 | 126
C=C(C(=O)OC)C(O)c1ccccc1C(F)(F)F (stereo not given) | 127 | 169 | 142
C=C(C(=O)OC)[C@@H](c1ccccc1)[C@H](O)CCC (relative stereo) | 16 | 33 | 8
C=C1C(=O)O[C@@H]2C3O[C@]3(C)CC/C=C(\C)CC[C@@H]12 (stereo not given in full) | 11 | 22 | 12
C=C(C[C@@H](c1ccccc1)[C@H](O)c1ccccc1)C(=O)OC (relative stereo) | 59 | 124 | 129
C=C(C(C)=O)[C@@H](c1ccccc1)[C@H](O)c1ccccc1 (relative stereo) | 53 | 105 | 104
C=C(CC(O)c1ccccc1)C(=O)OC (stereo not given) | 14 | 67 | 1
C=C(C(=O)OC)C(O)c1ccc(F)cc1 (stereo not given) | 118 | 136 | 137
C=C(C(=O)OC)[C@@H](c1ccccc1)[C@H](O[Si](C)(C)C(C)(C)C)c1ccccc1 (relative stereo) | 110 | 135 | 117
O=C1O[C@H](c2ccccc2)[C@H](c2ccccc2)/C1=C\c1ccccc1 (relative stereo) | 87 | 105 | 117
C=C(C(=O)OC)C(O)c1ccccc1F (stereo not given) | 128 | 157 | 137

Compound | growth at 10 µM [1] [%] | growth at 10 µM [2] [%] | growth at 10 µM [3] [%]
C=C(C(=O)OC)[C@@H](c1ccccc1)[C@H](O)Cc1ccccc1 (relative stereo) | 16 | 14 | 6
C=C(C(=O)OC)C(CO)c1ccccc1 (stereo not given) | 29 | 102 | 60
C=C(C(=O)OC)[C@@H](c1ccccc1)[C@H](OC)c1ccccc1 (relative stereo) | 102 | 123 | 94
C=C(C(=O)O)C(O)c1ccccc1 (stereo not given) | 94 | 127 | 110
C=C(C(=O)OC)C(CO)C1CCCCC1 (stereo not given) | 98 | 164 | 86
C=C(C(=O)OC)C(O)c1ccccc1 (stereo not given) | 119 | 118 | 129
C=C(C(=O)OC)[C@@H](C1CCCCC1)[C@@H](C)O (relative stereo) | 77 | 145 | 120
C=C(C(=O)OC)C(O)c1c(F)c(F)c(F)c(F)c1F (stereo not given) | 111 | 147 | 117
C=C(C(=O)OC)[C@@H](C)[C@H](O)c1ccccc1 (relative stereo) | 32 | 91 | 49
C=C(C(=O)OC)C(O)c1cccc(F)c1 (stereo not given) | 129 | 166 | 134
C=C(C(=O)OC)[C@@H](c1ccccc1)[C@H](O)c1ccccc1 (relative stereo) | 9 | 14 | 2
C=C(C(=O)OC)[C@@H](c1ccccc1)[C@H](O)C1CCCCC1 (relative stereo) | 29 | 83 | 23
C=C(C(=O)O)C(O)c1ccc(OC)cc1 (stereo not given) | 106 | 125 | 110
C=C(C(=O)Oc1ccccc1)[C@@H](c1ccccc1)[C@H](O)c1ccccc1 (relative stereo) | 8 | 9 | 1
C=C(C(=O)OC)C(O)c1ccc(C#N)cc1 (stereo not given) | 94 | 131 | 126
C=C(C(=O)OC)[C@@H](CCC)[C@H](O)c1ccccc1 (relative stereo) | 32 | 104 | 38
C=C(C(=O)OCc1ccccc1)[C@@H](c1ccccc1)[C@H](O)c1ccccc1 (relative stereo) | 12 | 6 | 2
C=C(C(=O)OCC)[C@@H](c1ccccc1)[C@H](O)c1ccccc1 (relative stereo) | 13 | 5 | 3
C=C(C(=O)OC)[C@@H](C)[C@@H](C)O (relative stereo) | 147 | 110 | 122
C=C(C(=O)OC)C(O)c1ccc(C(F)(F)F)cc1 (stereo not given) | 27 | 93 | 69

Reference: ChEMBL document CHEMBL3616425, “Factors influencing the cytotoxicity of α-methylene-γ-hydroxy esters against pancreatic cancer” (2015)
